From article PMC3058180 (Journal of pharmaceutical sciences, 2010) come the findings set out here.

The structures appear in SMILES notation.

In experiment [1] the test system is A/turkey/MN/833/80 (H4N2). Kind of experiment: microbe, parasite or virus in culture. The experiment is classed as cell-based. As to conditions: Influenza A virus, H4N2, MDCK, read-out: IC50 (nM of Zanamivir).
A further experiment has as its system A/Wuhan/359/95 (H3N2). Kind of experiment: microbe, parasite or virus in culture. The class given is cell-based. As to conditions: Influenza A virus, H3N2, MDCK, read-out: IC50 (nM of Zanamivir).

Regarding `CC(=O)N[C@H]1[C@H]([C@H](O)[C@H](O)CO)OC(C(=O)O)=C[C@@H]1N=C(N)N` [compound 1, Zanamivir], the IC50 in experiment [1] was 21000 nM; in the experiment with A/Wuhan/359/95 (H3N2), 23000 nM.

By IC50 is commonly meant the concentration that gives 50% inhibition.
